We go through five molecules from patent US20190298621A1, “METHODS OF TREATMENT OF THE DENTAL PULP AND FILLING ROOT CANALS USING ANTI INFLAMMATORY RINSE SOLUTION AND FILLING COMPOSITION” (DENTSPLY SIRONA Inc., priority 2018, published 2019).

The data set in a line: Anti-inflammatory agent solubility in solvents. Particulars: for Solvent (anti-inflammatory agent solubility in solvents): solvent in which the agent is miscible, ambient conditions. It counts as physicochemical. The protocol: An anti-inflammatory rinse solution was prepared by mixing anti-inflammatory agent in a solvent in which they are miscible in a vial under ambient conditions as shown in Table 2.

Molecules are shown by their SMILES.

For the molecule `O=C(/C=C/c1ccccc1)c1ccccc1` [Chalcone], the “Solvent (anti-inflammatory agent solubility in solvents)” value (from here on “Solvent”) is “Ethanol”. Turning to `C=CCc1ccc(O)c(OC)c1` [Eugenol], the “Solvent” value is recorded as “Ethanol” and the solubility in water entry is “partially soluble in water”. For `CC(C)Cc1ccc(C(C)C(=O)O)cc1` (stereo not shown) [Ibuprofen], the solubility in water entry is given as “partially soluble in water”. With `Cc1c(C)c2c(c(C)c1O)CC[C@@](C)(CCC[C@H](C)CCC[C@H](C)CCCC(C)C)O2` [Vitamin E, α-tocopherol], the “Solvent” value was “Ethanol” and the solubility in water entry is listed as “insoluble in water”. Take `OC[C@@H](O)[C@H](O)[C@@H](O)CO` [Xylitol]: the “Solvent” value is reported as “Water”.
